Where a SMILES comes first, the peptide text is derived from it. Bridges are numbered along the chain shown (N, C = ends). [ ]: non-standard residue; d: D form. R8 = C=CCCCCCC[C@@](C)(N)C(=O)O; S5 = C=CCCC[C@](C)(N)C(=O)O
Molecular target: GST-hDM2 (Homo sapiens, UniProt Q00987)
Assay: Competition ELISA IC50 (nM) | GST-hDM2
Description: Table printed on a drawing sheet, FIGURE 5A
Head of the field: Competition ELISA IC50 (nM) | GST-hDM2
The patent's description of the figure: FIGS. 5A-F describe the results of a cell viability assay, a competition ELISA assay, GRIP assay, Kd data, p21 activation assay, fluorescence polarization competition binding and circular helicity data for exemplary peptidomimetic macrocycles of the invention.
First copying reader's note: First part of a table that continues on FIGS. 5B-F; the print is coarse, several cells hold replicate values separated by; or , and some values sit slightly off their row line.
Where the first naming reader finds the target: head: Competition ELISA IC50 (nM) | GST-hDM2

Sequence of GST-hDM2 (Q00987 whole entry, looked up): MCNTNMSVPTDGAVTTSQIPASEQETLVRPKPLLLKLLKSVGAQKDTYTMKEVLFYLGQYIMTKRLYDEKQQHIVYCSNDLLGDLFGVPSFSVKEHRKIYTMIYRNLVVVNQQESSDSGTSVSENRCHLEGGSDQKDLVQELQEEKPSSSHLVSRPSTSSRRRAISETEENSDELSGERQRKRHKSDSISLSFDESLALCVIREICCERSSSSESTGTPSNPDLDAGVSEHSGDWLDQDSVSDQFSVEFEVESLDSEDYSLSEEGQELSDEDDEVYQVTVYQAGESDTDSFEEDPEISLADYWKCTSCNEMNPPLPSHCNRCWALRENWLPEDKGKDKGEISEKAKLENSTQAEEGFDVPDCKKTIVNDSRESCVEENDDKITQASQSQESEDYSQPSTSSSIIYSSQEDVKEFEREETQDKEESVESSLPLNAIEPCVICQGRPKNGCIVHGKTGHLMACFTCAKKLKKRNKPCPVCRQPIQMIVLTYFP

IC50: 13.4 nM
Compound: CC(=O)N[C@@H](CC(C)C)C(=O)N[C@@H](CO)C(=O)N[C@@H](CCC(N)=O)C(=O)N[C@@H](CCC(N)=O)C(=O)N[C@H](C(=O)N[C@@H](Cc1ccccc1)C(=O)N[C@]1(C)CCCCCCC=CCCC[C@@](C)(C(=O)N[C@@H](CCC(N)=O)C(=O)N[C@@H](CC(N)=O)C(N)=O)NC(=O)[C@H](CC(C)C)NC(=O)[C@H](CC(C)C)NC(=O)[C@H](CCCNC(=N)N)NC(=O)[C@H](Cc2c[nH]c3ccccc23)NC(=O)[C@H](CC(C)C)NC(=O)[C@H](CC(N)=O)NC1=O)[C@@H](C)O [SP-3, Ac-LSQQTF$r8NLWRLL$QN-NH2] (Ac-LSQQTF[R8]NLWRLL[S5]QN-NH2; staple 7-14 (inferred))

— patent US20170349638A1, “COMPANION DIAGNOSTIC TOOL FOR PEPTIDOMIMETIC MACROCYCLES” (AILERON Therapeutics, Inc., priority 2016, published 2017)
